The test relates to 8XTBD luciferase reporter. Nature of the test: YAP Reporter Assay. Type of test: cell-based. As to conditions: Homo sapiens, HEK-293T; HEK293T cells stably transfected with 8XTBD luciferase reporter and pRLTK; 24-hr incubation; starting from 3 μM, 1:3 dilution, 10 points; read-out: Firefly Luciferase IC50. As to the method: HEK293T cells stably transfected with 8XTBD luciferase reporter and pRLTK in 384-well plates were treated with the test compounds, starting from 3 μM (final concentration in assay plate), 1:3 dilution, and 10 points in quadruplicates. Post 24-hr incubation with compounds at 37° C. and 5% CO2, cells were lysed and 8XTBD-driven firefly luciferase and control TK-driven renilla luciferase activities were measured using Promega Dual-Luciferase Reporter Assay System.
Reagents: The reagents used for this study are: DMEM: Invitrogen #11960077, Dual-Glo Luciferase Assay System: Promega-E2980, Puromycin Dihydrochloride: Invitrogen-A1113803, 384-well plate: PerkinElmer-6007480, L-GLUTAMINE: Invitrogen-25030164, Hygromycin B: Invitrogen-10687010, and Penicillin-Streptomycin: Merk-TMS-AB2-C
Media: The media used for this assay were: Culture Medium: DMEM+1 ug/mL puromycin+200 ug/mL hygromycin (with 10% FBS+1 mM L-glutamine); and Assay Medium: DMEM (with 10% FBS+1 mM L-glutamine+1×P/S).
Cell Plating: The appropriate media was warmed at 37° C. by water bath: Culture Medium, Assay Medium, 1* D-PBS, 0.05% trypsin-EDTA. The cells were trypsinized after removing all media, then washed with 1* sterile D-PBS and then with 2 ml 0.05% trypsin-EDTA. The cells were then incubated at RT for one minute. Then 10 ml/75 cm2 flask Assay Medium was added to each flask. Using a 10 ml pipette, the cells were then gently resuspended in the media, until the clumps completely disappeared. The cells were then transferred into 50 ml centrifuge tubes and were centrifuged at 800 rpm for 5 mins. The medium was removed and the cells were resuspended with Assay Medium. An aliquot of cells was used to count the cell density (cells/ml). The cell suspension was then diluted with Assay Medium to a concentration of 6×10^4 cells/ml. 50 ul cells suspension was then plated to 384-well plate (PerkinElmer-6007480), 3×10^3 cells/well and the cells were incubated in an incubator at 37° C., 5% CO2.
Compound Treatment: In the afternoon (incubation of the plate with 3-4 hrs), the test compounds were added by Echo, starting from 3 uM (final concentration in the assay plate), 1:3 dilution, 10 points, quadruplicates. The plate was placed at 37° C., 5% CO2 incubator for 24 hrs.
Detection: The Dual-Glo Luciferase Reagent was prepared by transferring the contents of one bottle of Dual-Glo Luciferase Buffer to one bottle of Dual-Glo Luciferase Substrate to create the Dual-Glo Luciferase Reagent. Mixing was performed by inversion until the substrate was thoroughly dissolved. After mixing, the reagent was aliquoted into 15 ml tubes. In the afternoon (24 hrs post compound treatment), the DMEM+ medium in the 384 well plates were aspirated by Microplate Washer.
Measuring firefly luciferase activity: 20 ul Dual-Glo Luciferase Reagent was added to the 384-well plates. The plates were protected from light to prevent interference with the assay. The plates were shaken for 1 min followed centrifuging plates at 1000 rpm for 30 seconds. After waiting at least 10 minutes, the firefly luminescence was measured by Envision.
Measuring renilla luciferase activity: 20 ul Stop-Glo Reagent was added to the 384-well plates. The plates were shaken for 1 min and then centrifuged at 1000 rpm for 30 seconds. After waiting at least 10 minutes, the renilla luminescence was measured by Envision.
Compound IC50 and maximum inhibition on the firefly luciferase and renilla luciferase activities were reported separately.
(In a reporter assay the amount or activity of a reporter protein is the signal.)
As a reminder, the IC50 is the point on the concentration scale where inhibition reaches its midpoint. As to `CC(C)(C)NS(=O)(=O)c1ccc(NC2CCCCC2)c(-c2nn[nH]n2)c1` [Compound 1, N-(tert-butyl)-4-(cyclohexylamino)-3-(2H-tetrazol-5-yl)benzenesulfonamide], the IC50 was over 3000 nM.

For the compound `CC(C)(C)NS(=O)(=O)c1ccc(NC2CCCCC2)c(-c2nnn(CCO)n2)c1` [Compound 2, N-(tert-butyl)-4-(cyclohexylamino)-3-(2-(2-hydroxyethyl)-2H-tetrazol-5-yl)benzenesulfonamide], the IC50 is over 3000 nM. Under `Cc1nc(-c2cc(S(C)(=O)=O)ccc2NC2CCCCC2)no1` [Compound 3, N-cyclohexyl-2-(5-methyl-1,2,4-oxadiazol-3-yl)-4-(methylsulfonyl)aniline] stands at most 100 nM; under `CS(=O)(=O)c1ccc(NC2CCCCC2)c(-c2nn[nH]n2)c1` [Compound 4, N-cyclohexyl-4-(methylsulfonyl)-2-(2H-tetrazol-5-yl)aniline], over 3000 nM; under `Cn1nnc(-c2cc(S(C)(=O)=O)ccc2NC2CCCCC2)n1` [Compound 5, N-cyclohexyl-2-(2-methyl-2H-tetrazol-5-yl)-4-(methylsulfonyl)aniline], 100 to 1000 nM. For `Cn1cc(-c2cc(S(C)(=O)=O)ccc2NC2CCCCC2)nn1` [Compound 6, N-cyclohexyl-2-(1-methyl-1H-1,2,3-triazol-4-yl)-4-(methylsulfonyl)aniline] the value was 100 to 1000 nM; for `Cn1cc(-c2cc(S(C)(=O)=O)ccc2NC2CCCCC2)cn1` [Compound 7, N-cyclohexyl-2-(1-methyl-1H-pyrazol-4-yl)-4-(methylsulfonyl)aniline], over 3000 nM.

Turning to `Cn1ccc(-c2cc(S(C)(=O)=O)ccc2NC2CCCCC2)n1` [Compound 8, N-cyclohexyl-2-(1-methyl-1H-pyrazol-3-yl)-4-(methylsulfonyl)aniline], the IC50 lay in the range of 100 to 1000 nM.

For the compound `CS(=O)(=O)c1ccc(NC2CCCCC2)c(-n2ccnn2)c1` [Compound 9, N-cyclohexyl-4-(methylsulfonyl)-2-(1H-1,2,3-triazol-1-yl)aniline], the IC50 was over 3000 nM. Consider `CS(=O)(=O)c1ccc(NC2CCCCC2)c(-n2cccn2)c1` [Compound 10, N-cyclohexyl-4-(methylsulfonyl)-2-(1H-pyrazol-1-yl)aniline], for which the IC50 lay within 1000 to 3000 nM. For `CS(=O)(=O)c1ccc(NC2CCCCC2)c(-n2ccnc2)c1` [Compound 11, N-cyclohexyl-2-(1H-imidazol-1-yl)-4-(methylsulfonyl)aniline] the value was over 3000 nM; for `CS(=O)(=O)c1ccc(NC2CCCCC2)c(-n2cncn2)c1` [Compound 12, N-cyclohexyl-4-(methylsulfonyl)-2-(1H-1,2,4-triazol-1-yl)aniline], over 3000 nM.

`CS(=O)(=O)c1ccc(NC2CCCCC2)c(-n2nccn2)c1` [Compound 13, N-cyclohexyl-4-(methylsulfonyl)-2-(2H-1,2,3-triazol-2-yl)aniline]: the IC50 was in the range of 100 to 1000 nM. Under `CCn1nnc(-c2cc(S(=O)(=O)NC)ccc2NC2CCCCC2)n1` [Compound 14, 4-(cyclohexylamino)-3-(2-ethyl-2H-tetrazol-5-yl)-N-methylbenzenesulfonamide] stands at most 100 nM; under `CCCn1nnc(-c2cc(S(=O)(=O)NC)ccc2NC2CCCCC2)n1` [Compound 15, 4-(cyclohexylamino)-N-methyl-3-(2-propyl-2H-tetrazol-5-yl)benzenesulfonamide], at most 100 nM; under `CNS(=O)(=O)c1ccc(NC2CCCCC2)c(-c2nnn(-c3ccc(F)cc3)n2)c1` [Compound 16, 4-(cyclohexylamino)-3-(2-(4-fluorophenyl)-2H-tetrazol-5-yl)-N-methylbenzenesulfonamide], 100 to 1000 nM.

For the compound `CNS(=O)(=O)c1ccc(NC2CCCCC2)c(-c2nnn(C3CCC3)n2)c1` [Compound 17, 3-(2-cyclobutyl-2H-tetrazol-5-yl)-4-(cyclohexylamino)-N-methylbenzene sulfonamide], the IC50 is at most 100 nM.

(Values after patent US11192865B2, “Benzosulfonyl compounds” (Vivace Therapeutics, Inc., priority 2017, dated 2021).)
